Measurements as given in patent US11407719B2, “Anti-inflammatory agents” (Resverlogix Corp., priority 2009, dated 2022).

Legend:
hIL-6 mRNA = assay: Quantification of hIL-6 mRNA; format: cell-based, human; design: key: Active: an active compound is one that causes a ≥20% inhibition in IL-6 mRNA at a concentration less than or equal to 10 μM; conditions: IL-6 mRNA by real-time PCR; differentiated U937 cells, 1 h pretreatment, lipopolysaccharide stimulation 3 h; concentration ≤10 μM
How it was run: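 U937 cells, differentiated for 3 days, were pretreated with compound for 1 h and then stimulated with E. coli LPS for 3 h at 37 °C. IL-6 mRNA was quantified by one-step qRT-PCR, with Ct normalized to an internal control, and fold induction was expressed relative to control.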

VCAM-1 mRNA = assay: Quantification of hVCAM mRNA; format: cell-based, human; design: key: Active: an active compound is one that causes a ≥20% inhibition in VCAM-1 mRNA at a concentration less than or equal to 10 μM; -1 mRNA at a concentration less than or equal to 10 μM; conditions: VCAM-1 mRNA by real-time PCR; HUVECs, 1 h pretreatment, tumor necrosis factor-α stimulation 24 h; concentration ≤10 μM
How it was run: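 HUVECs were pretreated 1 h with compound, then stimulated with TNF-α and harvested 24 h later. Isolated mRNA went into one-step qRT-PCR. hVCAM Ct values were normalized to an internal control and expressed as fold induction relative to control.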

Row | Structure (SMILES) | melting point [°C] | Inhibition of IL-6 expression (hIL-6 mRNA) | Inhibition of VCAM-1 expression (VCAM-1 mRNA)
1 | COc1cc(OC)c2c(=O)[nH]c(-c3cc(C)c(OCCN4C(=O)NC(c5ccccc5)C4=O)c(C)c3)nc2c1 (stereo not drawn) [3-(2-(4-(5,7-Dimethoxy-4-oxo-3,4-dihydroquinazolin-2-yl)-2,6-dimethylphenoxy)ethyl)-5-phenylimidazolidine-2,4-dione] | 219.6 to 221.4 | Active | Active
2 | COc1cc(OC)c2c(=O)[nH]c(-c3cccc(OCCO)c3)nc2c1 [2-(3-(2-Hydroxyethoxy)phenyl)-5,7-dimethoxyquinazolin-4(3H)-one] | 244.8 to 246 | Active | Active
3 | COc1cc(OCCNC(C)=O)cc(-c2nc3cc(OC)cc(OC)c3c(=O)[nH]2)c1 [N-(2-(3-(5,7-dimethoxy-4-oxo-3,4-dihydroquinazolin-2-yl)-5-methoxyphenoxy)ethyl)acetamide] | 264 to 265 | Active | Active
4 | COc1cc(OCCOCc2ccccc2)cc2nc(-c3ccncc3)[nH]c(=O)c12 [7-(2-(Benzyloxy)ethoxy)-5-methoxy-2-(pyridin-4-yl)quinazolin-4(3H)-one] | 228.2 to 229.9 | Active | Active
5 | COCCOc1cc(OCCOC)c2c(=O)[nH]c(-c3cc(C)nc(C)c3)nc2c1 [2-(2,6-Dimethylpyridin-4-yl)-5,7-bis(2-methoxyethoxy)quinazolin-4(3H)-one] | 149.8 to 151.4 | Active | Active
6 | COc1cc(OC)c2c(=O)[nH]c(-c3cc(C)c(OCCN4CCN(C(C)=O)CC4)c(C)c3)nc2c1 [2-(4-(2-(4-Acetylpiperazin-1-yl)ethoxy)-3,5-dimethylphenyl)-5,7-dimethoxyquinazolin-4(3H)-one] | 213 to 214 | Active | Active

Now from value to molecule, other results behind:

Row | melting point [°C] | Structure (SMILES) | Inhibition of IL-6 expression (hIL-6 mRNA) | Inhibition of VCAM-1 expression (VCAM-1 mRNA)
7 | 231 to 232 | COc1cccc2c(=O)[nH]c(-c3cc(C)c(OCCN4CCCC4)c(C)c3)nc12 [2-(3,5-Dimethyl-4-(2-(pyrrolidin-1-yl)ethoxy)phenyl)-8-methoxyquinazolin-4(3H)-one] | Active | Active
8 | 201.2 to 203.1 | COc1ccc2nc(-c3cc(C)c(OCCN4CCCC4)c(C)c3)[nH]c(=O)c2c1 [2-(3,5-Dimethyl-4-(2-(pyrrolidin-1-yl)ethoxy)phenyl)-6-methoxyquinazolin-4(3H)-one] | Active | Active
9 | 198 to 199 | COc1cc(OC)c2c(=O)[nH]c(-c3cc(C)c(OCCN4CCCCCC4)c(C)c3)nc2c1 [2-(4-(2-(Azepan-1-yl)ethoxy)-3,5-dimethylphenyl)-5,7-dimethoxyquinazolin-4(3H)-one] | Active | Active
